Laboratory results from patent US12065444B2, “Substituted tetrazolo[1,5-a]pyrazines and tetrazolo[1,5-c]pyrimidines as adenosine receptor antagonists” (Crossignal Therapeutics, Inc., priority 2021, dated 2024).

How the values were obtained:
[1] = target: human adenosine A2a receptor (Homo sapiens, UniProt P29274); assay: Adenosine A2a receptor whole cell cyclic AMP assay; details: for inhibition at 10 µM: HEK293, 1 h, read-out: A2a @ 100 μM Adenosine (A2a cAMP IC50)
[2] = target: T1, human adenosine A2b receptor (Homo sapiens, UniProt P29275); assay: Adenosine A2b receptor whole cell cyclic AMP assay; details: for inhibition at 10 µM: HEK293, 1 h, read-out: A2b @ 10 μM Adenosine (A2b cAMP IC50)
T1 sequence (P29275 1-332): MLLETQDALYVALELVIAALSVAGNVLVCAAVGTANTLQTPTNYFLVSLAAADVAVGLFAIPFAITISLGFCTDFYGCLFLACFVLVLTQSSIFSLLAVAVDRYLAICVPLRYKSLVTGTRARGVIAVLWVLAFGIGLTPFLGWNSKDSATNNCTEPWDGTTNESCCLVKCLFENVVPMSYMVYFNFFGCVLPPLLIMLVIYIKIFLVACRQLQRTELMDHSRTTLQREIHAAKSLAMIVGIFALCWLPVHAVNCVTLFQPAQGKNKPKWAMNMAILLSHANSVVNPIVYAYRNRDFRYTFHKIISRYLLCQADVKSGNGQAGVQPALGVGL

[3] = A2a @ 1 μM Adenosine (A2a cAMP IC50), HEK293 cells stably expressing human A2a, 1 μM adenosine, 1 hour compound treatment
[4] = A2a @ 100 μM Adenosine (A2a cAMP IC50), HEK293 cells stably expressing human A2a, 100 μM adenosine, 1 hour compound treatment

Chain of human adenosine A2a receptor (P29274 whole entry): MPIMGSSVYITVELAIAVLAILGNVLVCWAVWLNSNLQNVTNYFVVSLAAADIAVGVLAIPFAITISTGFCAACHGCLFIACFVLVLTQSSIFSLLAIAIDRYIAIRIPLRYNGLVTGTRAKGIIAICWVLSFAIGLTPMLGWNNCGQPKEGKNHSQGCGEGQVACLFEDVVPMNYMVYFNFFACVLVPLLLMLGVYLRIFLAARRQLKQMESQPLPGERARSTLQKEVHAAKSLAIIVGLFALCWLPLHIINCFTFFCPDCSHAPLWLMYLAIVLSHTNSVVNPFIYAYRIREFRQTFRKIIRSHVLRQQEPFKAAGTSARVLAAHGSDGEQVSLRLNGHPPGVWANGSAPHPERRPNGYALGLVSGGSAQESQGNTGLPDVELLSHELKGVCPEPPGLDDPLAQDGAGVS

Structure (SMILES) | IC50 [1, 3] [nM] | IC50 [1, 4] [nM] | also measured
Nc1nc(-c2ccc(F)cc2)c(-c2cc(Cl)nc(C(F)(F)F)c2)c2nnnn12 [1-34, 8-(2-chloro-6-(trifluoromethyl)pyridin-4-yl)-7-(4-fluorophenyl)tetrazolo[1,5-c]pyrimidin-5-amine] | 100 to 1000 | > 1000 | inhibition at 10 µM [2]: < 25%
Cc1ccnc2ccc(-c3c(-c4ccc(F)cc4)nc(N)n4nnnc34)cc12 [1-36, 7-(4-fluorophenyl)-8-(4-methylquinolin-6-yl)tetrazolo[1,5-c]pyrimidin-5-amine] | < 100 | – | IC50 [2]: 100 to 1000 nM
COc1ccc(-c2nc(N)c3nnnn3c2-c2ccc3nccc(C)c3c2)cc1 [1-38, 6-(4-methoxyphenyl)-5-(4-methylquinolin-6-yl)tetrazolo[1,5-a]pyrazin-8-amine] | 100 to 1000 | – | inhibition at 10 µM [2]: < 25%
N#Cc1cc(-c2c(-c3ccc(F)cc3)nc(N)n3nnnc23)cc(Cl)n1 [1-41, 4-(5-amino-7-(4-fluorophenyl)tetrazolo[1,5-c]pyrimidin-8-yl)-6-chloropicolinonitrile] | 100 to 1000 | – | –
Nc1nc(-c2ccc(F)cc2)c(-c2ccc3nc[nH]c3c2)c2nnnn12 [1-42, 8-(1H-benzo[d]imidazol-6-yl)-7-(4-fluorophenyl)tetrazolo[1,5-c]pyrimidin-5-amine] | 100 to 1000 | – | –
Cc1ccnc2ccc(-c3c(-c4ccc(F)cc4F)nc(N)c4nnnn34)cc12 [1-43, 6-(2,4-difluorophenyl)-5-(4-methylquinolin-6-yl)tetrazolo[1,5-a]pyrazin-8-amine] | < 100 | – | inhibition at 10 µM [1]: < 25%; inhibition at 10 µM [2]: < 25%
Cc1ccnc2ccc(-c3c(-c4ccc(C#N)cc4)nc(N)c4nnnn34)cc12 [1-44, 4-(8-amino-5-(4-methylquinolin-6-yl)tetrazolo[1,5-a]pyrazin-6-yl)benzonitrile] | < 100 | – | –
Cc1ccnc2ccc(-c3c(-c4ccccc4Cl)nc(N)c4nnnn34)cc12 [1-45, 6-(2-chlorophenyl)-5-(4-methylquinolin-6-yl)tetrazolo[1,5-a]pyrazin-8-amine] | 100 to 1000 | – | –
Cc1ccnc2ccc(-c3c(-c4ccncc4)nc(N)c4nnnn34)cc12 [1-46, 5-(4-methylquinolin-6-yl)-6-(pyridin-4-yl)tetrazolo[1,5-a]pyrazin-8-amine] | 100 to 1000 | – | –
Cc1ccnc2ccc(-c3c(-c4cccnc4)nc(N)c4nnnn34)cc12 [1-47, 5-(4-methylquinolin-6-yl)-6-(pyridin-3-yl)tetrazolo[1,5-a]pyrazin-8-amine] | 100 to 1000 | – | –
Cc1ccnc2ccc(-c3c(-c4ccccc4C#N)nc(N)c4nnnn34)cc12 [1-49, 2-(8-amino-5-(4-methylquinolin-6-yl)tetrazolo[1,5-a]pyrazin-6-yl)benzonitrile] | 100 to 1000 | – | –
Cn1cnc2ccc(-c3c(-c4ccc(C#N)cc4)nc(N)n4nnnc34)cc21 [1-52, 4-(5-amino-8-(1-methyl-1H-benzo[d]imidazol-6-yl)tetrazolo[1,5-c]pyrimidin-7-yl)benzonitrile] | 100 to 1000 | – | –
COc1ccc(-c2nc(N)c3nnnn3c2-c2ccc3ncn(C)c3c2)cc1 [1-53, 6-(4-methoxyphenyl)-5-(1-methyl-1H-benzo[d]imidazol-6-yl)tetrazolo[1,5-a]pyrazin-8-amine] | < 100 | – | inhibition at 10 µM [1]: < 25%
Cc1cc(-c2c(-c3ccc(F)cc3)nc(N)n3nnnc23)cc(C(F)F)n1 [1-58, 8-(2-(difluoromethyl)-6-methylpyridin-4-yl)-7-(4-fluorophenyl)tetrazolo[1,5-c]pyrimidin-5-amine] | 100 to 1000 | > 1000 | –
COc1ccc(-c2nc(N)n3nnnc3c2-c2cc(Cl)nc(C(F)(F)F)c2)cc1 [1-59, 8-(2-chloro-6-(trifluoromethyl)pyridin-4-yl)-7-(4-methoxyphenyl)tetrazolo[1,5-c]pyrimidin-5-amine] | 100 to 1000 | > 1000 | –
Cc1c(C#N)cccc1-c1cc(-c2cn(Cc3cccc(C(C)(C)O)n3)nn2)nc(N)n1 [AB928, reference compound] | 100 to 1000 | > 1000 | IC50 [2]: > 1000 nM
Cc1ccc(-c2nc(N)nc3c2nnn3Cc2cccc(CO[C@H]3CCOC3)n2)o1 [CPI-444, reference compound] | – | – | A2a @ 100 μM Adenosine (A2a cAMP IC50) ([1]; HEK293 cells stably expressing human A2a, 100 μM adenosine, 1 hour compound treatment, 10 µM): NR (“NR” indicates A2a or A2b mean inhibition is <25% at the top concentration); inhibition at 10 µM [2]: < 25%

Further lines, with some results ahead:

IC50 [1, 3] [nM] | IC50 [1, 4] [nM] | Structure (SMILES) | also measured
< 100 | – | Cc1ccnc2ccc(-c3c(-c4ccc(F)cc4)nc(N)c4nnnn34)cc12 [1-6, 6-(4-fluorophenyl)-5-(4-methylquinolin-6-yl)tetrazolo[1,5-a]pyrazin-8-amine] | inhibition at 10 µM [2]: < 25%
< 100 | 100 to 1000 | Cc1cnc2ccc(-c3c(-c4ccc(F)cc4)nc(N)c4nnnn34)cn12 [1-7, 6-(4-fluorophenyl)-5-(3-methylimidazo[1,2-a]pyridin-6-yl)tetrazolo[1,5-a]pyrazin-8-amine] | IC50 [2]: 100 to 1000 nM
< 100 | 100 to 1000 | Cn1cnc2ccc(-c3c(-c4ccc(F)cc4)nc(N)c4nnnn34)cc21 [1-13, 6-(4-fluorophenyl)-5-(1-methyl-1H-benzo[d]imidazol-6-yl)tetrazolo[1,5-a]pyrazin-8-amine] | IC50 [2]: 100 to 1000 nM
< 100 | > 1000 | Nc1nc(-c2ccc(F)cc2)c(-c2ccc3ncc(CO)n3c2)n2nnnc12 [1-20, (6-(8-amino-6-(4-fluorophenyl)tetrazolo[1,5-a]pyrazin-5-yl)imidazo[1,2-a]pyridin-3-yl)methanol] | IC50 [2]: 100 to 1000 nM
< 100 | 100 to 1000 | Cc1cnc2ccc(-c3c(-c4ccc(F)cc4)nc(N)n4nnnc34)cn12 [1-25, 7-(4-fluorophenyl)-8-(3-methylimidazo[1,2-a]pyridin-6-yl)tetrazolo[1,5-c]pyrimidin-5-amine] | IC50 [2]: 100 to 1000 nM
100 to 1000 | 100 to 1000 | Nc1nc(-c2ccc(F)cc2)c(-c2ccc3ncc(C(F)F)n3c2)n2nnnc12 [1-48, 5-(3-(difluoromethyl)imidazo[1,2-a]pyridin-6-yl)-6-(4-fluorophenyl)tetrazolo[1,5-a]pyrazin-8-amine] | IC50 [2]: 100 to 1000 nM
100 to 1000 | – | Cc1cnc2ccc(-c3c(-c4ccc(C#N)cc4)nc(N)c4nnnn34)cn12 [1-51, 4-(8-amino-5-(3-methylimidazo[1,2-a]pyridin-6-yl)tetrazolo[1,5-a]pyrazin-6-yl)benzonitrile] | –
100 to 1000 | – | Cc1cc(-c2c(-c3ccc(F)cc3)nc(N)c3nnnn23)cc(C(F)F)n1 [1-54, 5-(2-(difluoromethyl)-6-methylpyridin-4-yl)-6-(4-fluorophenyl)tetrazolo[1,5-a]pyrazin-8-amine] | inhibition at 10 µM [1]: < 25%
100 to 1000 | – | Nc1nc(-c2ccc(F)cc2)c(-c2cc(Cl)nc(C(F)(F)F)c2)n2nnnc12 [1-55, 5-(2-chloro-6-(trifluoromethyl)pyridin-4-yl)-6-(4-fluorophenyl)tetrazolo[1,5-a]pyrazin-8-amine] | inhibition at 10 µM [1]: < 25%
100 to 1000 | > 1000 | COc1ccc(-c2nc(N)c3nnnn3c2-c2ccc3ncc(C)n3c2)cc1 [1-56, 6-(4-methoxyphenyl)-5-(3-methylimidazo[1,2-a]pyridin-6-yl)tetrazolo[1,5-a]pyrazin-8-amine] | –
100 to 1000 | > 1000 | COc1ccc(-c2nc(N)n3nnnc3c2-c2ccc3ncc(C)n3c2)cc1 [1-57, 7-(4-methoxyphenyl)-8-(3-methylimidazo[1,2-a]pyridin-6-yl)tetrazolo[1,5-c]pyrimidin-5-amine] | IC50 [2]: 100 to 1000 nM
